Measured values from article PMC2375326, “In vitro evaluation of amino acid prodrugs of novel antitumour 2-(4-amino-3-methylphenyl)benzothiazoles” (British Journal of Cancer, 2002).

Assays:
Assay type in all cases: cell-based
SN12C = test: NCI in vitro cytotoxicity assay (SRB), SN12C; details: Homo sapiens, 48 h exposure, sulforhodamine B assay, mean graph, read-out: Log10 GI50 (SN12C) (converted)
Method: (§1) Cell culture and drug application procedures have been described previously ([Boyd and Paull, 1995]). Briefly, cell lines were inoculated into a series of 96-well microtiter plates, with varied seeding densities depending on growth characteristics of each cell line. Following a 24 h drug free incubation, test agents were added at five 10-fold dilutions with a maximum concentration of 100 μM. Cellular protein levels were determined after 48 h drug exposure by sulphorhodamine B colorimetry.

NCI-460 = test: NCI in vitro cytotoxicity assay (SRB), NCI-460; details: Homo sapiens, 48 h exposure, sulforhodamine B assay, mean graph, read-out: Log10 GI50 (NCI-460) (converted)
Method: as §1

K-562 = test: NCI in vitro cytotoxicity assay (SRB), K-562; details: Homo sapiens, K562; 48 h exposure, sulforhodamine B assay, mean graph; read-out: Log10 GI50 (K-562) (converted)
Method: as §1

SR = test: NCI in vitro cytotoxicity assay (SRB), SR; details: Homo sapiens, 48 h exposure, sulforhodamine B assay, mean graph, read-out: Log10 GI50 (SR) (converted)
Method: as §1

OVCAR-5 = test: NCI in vitro cytotoxicity assay (SRB), OVCAR-5; details: Homo sapiens, 48 h exposure, sulforhodamine B assay, mean graph, read-out: Log10 GI50 (OVCAR-5) (converted)
Method: as §1

HOP-62 = test: NCI in vitro cytotoxicity assay (SRB), HOP-62; details: Homo sapiens, 48 h exposure, sulforhodamine B assay, mean graph, read-out: Log10 GI50 (HOP-62) (converted)
Method: as §1

[1] = test system: MCF-7 (ER+) human derived breast carcinoma cells; test: Growth inhibitory assay (MTT), MCF-7; details: MCF7, ER+ MCF-7, 3 days (72 h) treatment, n=8, representative mean, ^a = biphasic dose response
Method: Prodrugs were prepared as 10 mM top stocks, dissolved in dimethylsulphoxide (DMSO) or sterile ddH2O, and stored at 4°C, protected from light for a maximum period of 4 weeks. MCF-7 (ER+) and MDA 468 (ER−) human derived breast carcinoma cells, cultivated at 37°C in an atmosphere of 5% CO2 in RPMI 1640 medium supplemented with 2 mM L-glutamine and 10% foetal calf serum, were routinely subcultured twice weekly to maintain continuous logarithmic growth. Cells were seeded into 96-well microtiter plates at a density of 5×10^3 per well and allowed 24 h to adhere before drugs were introduced (final concentration 0.1 nM–100 μM, n=8). Serial drug dilutions were prepared in medium immediately prior to each assay. Viable cell masses at the time of drug addition (time-zero), and following 72 h drug exposure were determined by cell-mediated 3-(4,5-dimethylthiazol-2-yl)-2,5-diphenyltetrazolium bromide (MTT) reduction. MTT was added to each well (final concentration 400 μg ml^−1) and plates were incubated at 37°C for 4 h to allow reduction of MTT by viable cell dehydrogenases to an insoluble formazan product. Well supernatants were aspirated and cellular formazan solubilised by addition of DMSO : glycine buffer (pH 10.5) (4 : 1). Cell growth as well as drug activity were determined by measuring absorbance at 550 nm using an Anthos Labtec systems plate reader.

MALME-3M = test: NCI in vitro cytotoxicity assay (SRB), MALME-3M; details: Homo sapiens, 48 h exposure, sulforhodamine B assay, mean graph, read-out: Log10 GI50 (MALME-3M) (converted)
Method: as §1

SK-MEL-2 = test: NCI in vitro cytotoxicity assay (SRB), SK-MEL-2; details: Homo sapiens, 48 h exposure, sulforhodamine B assay, mean graph, read-out: Log10 GI50 (SK-MEL-2) (converted)
Method: as §1

SK-OV-3 = test: NCI in vitro cytotoxicity assay (SRB), SK-OV-3; details: Homo sapiens, 48 h exposure, sulforhodamine B assay, mean graph, read-out: Log10 GI50 (SK-OV-3) (converted)
Method: as §1

NCIH23 = test: NCI in vitro cytotoxicity assay (SRB), NCIH23; details: Homo sapiens, NCI-H23; 48 h exposure, sulforhodamine B assay, mean graph; read-out: Log10 GI50 (NCIH23) (converted)
Method: as §1

RXF 393 = test: NCI in vitro cytotoxicity assay (SRB), RXF 393; details: Homo sapiens, 48 h exposure, sulforhodamine B assay, mean graph, read-out: Log10 GI50 (RXF 393) (converted)
Method: as §1

HS 578T = test: NCI in vitro cytotoxicity assay (SRB), HS 578T; details: Homo sapiens, 48 h exposure, sulforhodamine B assay, mean graph, read-out: Log10 GI50 (HS 578T) (converted)
Method: as §1

T-47D = test: NCI in vitro cytotoxicity assay (SRB), T-47D; details: Homo sapiens, T47D; 48 h exposure, sulforhodamine B assay, mean graph; read-out: Log10 GI50 (T-47D) (converted)
Method: as §1

SF-539 = test: NCI in vitro cytotoxicity assay (SRB), SF-539; details: Homo sapiens, 48 h exposure, sulforhodamine B assay, mean graph, read-out: Log10 GI50 (SF-539) (converted)
Method: as §1

SK-MEL-5 = test: NCI in vitro cytotoxicity assay (SRB), SK-MEL-5; details: Homo sapiens, 48 h exposure, sulforhodamine B assay, mean graph, read-out: Log10 GI50 (SK-MEL-5) (converted)
Method: as §1

DU-145 = test: NCI in vitro cytotoxicity assay (SRB), DU-145; details: Homo sapiens, 48 h exposure, sulforhodamine B assay, mean graph, read-out: Log10 GI50 (DU-145) (converted)
Method: as §1

IGROV1 = test: NCI in vitro cytotoxicity assay (SRB), IGROV1; details: Homo sapiens, IGROV-1; 48 h exposure, sulforhodamine B assay, mean graph; read-out: Log10 GI50 (IGROV1) (converted)
Method: as §1

Compound | GI50 (SN12C) | GI50 (NCI-460) | GI50 (K-562) | GI50 (SR) | GI50 (OVCAR-5) | GI50 (HOP-62) | GI50 [1] | GI50 (MALME-3M) | GI50 (SK-MEL-2) | GI50 (SK-OV-3) | GI50 (NCIH23) | GI50 (RXF 393) | GI50 (HS 578T) | GI50 (T-47D) | GI50 (SF-539) | GI50 (SK-MEL-5) | GI50 (DU-145) | GI50 (IGROV1)
Cc1cc(-c2nc3cc(F)ccc3s2)ccc1N [Compound 2, 2-(4-Amino-3-methylphenyl)-5-fluorobenzothiazole] | 74.1 µM | < 0.01 µM | > 100 µM | < 0.01 µM | 0.0107 µM | 18.6 µM | < 0.0001 µM | 91.2 µM | > 100 µM | 83.2 µM | 51.3 µM | 32.4 µM | 46.8 µM | < 0.01 µM | 27.5 µM | > 100 µM | 95.5 µM | < 0.01 µM
Cc1cc(-c2nc3cc(F)ccc3s2)ccc1NC(=O)[C@@H](N)CCCCN [Compound 2b] | 12.3 µM | 0.0708 µM | 2.29 µM | 0.562 µM | 0.126 µM | 6.31 µM | 0.0391 µM | 17.4 µM | 2.51 µM | 16.2 µM | 6.17 µM | 7.24 µM | 3.63 µM | < 0.01 µM | 14.1 µM | 15.5 µM | 16.2 µM | < 0.01 µM
